For one experiment, the target named is T1, BIM/MCL-1 (Homo sapiens, UniProt O43521).
T1 construct: expressed in transfected cells; host or cells: 293 cells; lysates used
Kind of experiment: Immunoprecipitation of HA-BIM / V5-Mcl-1 from 293 lysates. It counts as binding. The settings on record: 25 uM, 15 min, anti-HA immunoprecipitation, western blot. On the procedure:
(FIG. 10A) Structure of the PUMA inhibitor lead compound (PUMAi). (FIG. 10B) Lysates of 293 cells transfected with individual plasmids for 24 hours were mixed in the indicated combinations. Lysates were incubated with vehicle or PUMA inhibitor (PUMAi, 25 μM) for 15 min before immunoprecipitation with an anti-HA antibody. The HA-bound proteins and input were analyzed by western blotting. (FIG. 10C) Lysates of 293 cells transfected with individual plasmids for 24 h were mixed in the indicated combinations. Lysates were incubated with vehicle or PUMA Inhibitor (PUMAi, 25 μM) for 15 min before immunoprecipitation with an anti-HA antibody. The HA-bound proteins and input were analyzed by western blotting. (FIG. 10D) Indicated colon cancer cell lines were treated with camptothecin (CPT, 500 nM) for 24 h. HCT 116 cells and PUMA KO HCT 116 cells have WT p53, others have no (KO) or mutant p53. Apoptosis was measured by nuclear fragmentation assay. Values are mean+SEM; n=3 independent experiments. (FIG. 10E) Cells were treated as in D for 24 h and analyzed by western blotting. Representative results are shown, and similar results were obtained in at least three independent experiments. […]

A further experiment deals with LGR5+ stem cells. As to the kind of experiment: LGR5+ stem cells, niche and DNA damage after CPT-11 in mice. The format is in vivo, mouse. The method, then:
LGR5(GFP)/TUNEL IF. Sections were prepared as described above. […] Sections were then washed in PBS, and TUNEL staining was performed with the ApopTag Fluorescein In Situ Apoptosis Detection Kit (Chemicon) according to the manufacturer's instructions (37, 46).
CD166 IF. Sections were prepared as described above.
p53 BP1 IF: Sections were prepared as described above. […] Sections were then incubated with AlexaFluor-594 goat anti-rabbit secondary antibodies (1:200; A11012; Invitrogen) for 1 hour at room temperature and counterstained with VectaShield plus DAPI.
Fresh mucosal scrapings from 10 cm of jejunum were washed in cold PBS, resuspended in 700 ul of RNA lysis buffer, and homogenized in a Dounce homogenizer. RNA was isolated using the Quick-RNA MiniPrep kit (Zymo Research) according to the manufacturer's instructions. Organoids were freed from Matrigel using Cell Recovery Solution (Corning), as described in, before RNA isolation. Complementary DNA was generated from 2 ug of total RNA from mice or ˜100 ng of total RNA from colonic organoids and was pooled from three mice or three wells of organoid culture per treatment group using SuperScript III reverse transcriptase (Invitrogen) and random primers. Gene expression was normalized to Gapdh. Representative results are shown, and similar results were obtained in at least three independent experiments. Details on mouse and human primers are found in Tables 1 and 2.

The values that follow come from patent US20220125746A1, “METHOD OF PREVENTING OR TREATING TREATMENT-INDUCED GASTROINTESTINAL INJURY” (priority 2019, published 2022).

The structures appear in SMILES notation. Structures can show the parent of a compound that is named as a salt.

T1 sequence (O43521 whole entry, species assumed): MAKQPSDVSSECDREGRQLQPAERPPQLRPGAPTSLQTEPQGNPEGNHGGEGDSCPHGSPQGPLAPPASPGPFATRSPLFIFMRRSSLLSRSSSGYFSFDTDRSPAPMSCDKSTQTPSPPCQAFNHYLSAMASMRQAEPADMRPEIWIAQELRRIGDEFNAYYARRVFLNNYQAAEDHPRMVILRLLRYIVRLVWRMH

For the compound `OCCN1CCN(CC(O)COc2ccc3ccccc3c2)CC1` (stereo not shown) [PUMAi, 1-[4-(2-hydroxyethyl)-1-piperazinyl]-3-(2-naphthyloxy)-2-propanol dihydrochloride], the “inhibition of BIM/MCL-1 interaction” value on BIM/MCL-1 is on record as “not of BIM/MCL-1”. Also, the “crypt DNA damage by 53BP1 foci” value is recorded as “comparable” in the experiment on LGR5+ stem cells (6 hours after single CPT-11 dose, vs control group) and “lower” in the experiment with LGR5+ stem cells (48 hours after a single dose, more so 120 hours after three doses of CPT-11). Further, the “decrease of CPT-11-induced apoptosis of LGR5+ cells” value in the experiment with LGR5+ stem cells (LGR5-EGFP reporter mice, CPT-11 200 mg/kg, PUMAi 10 mg/kg 2 h before) is on record as more than 70%. Besides, in the experiment on LGR5+ stem cells (after CPT-11, intestinal mucosa), the “suppression of TA marker CD44 mRNA” value is “not by PUMAi”. Further, in the experiment on LGR5+ stem cells (as early as 6 hours after CPT-11), the “activation of WNT and NOTCH responsive genes (qRT-PCR)” value was “largely suppressed”. In addition, the “CPT-11-induced expansion of CD166+ cells” value with LGR5+ stem cells (by 96 hours) is listed as “fully suppressed”.
